{
  "source": "patent US4345938A",
  "about": "“Herbicidal 2-haloacetanilides” (Monsanto Company, priority 1980, dated 1982)",
  "assay_type_in_all_cases": "in vivo",
  "key": {"[1]": {"test_system": "Canada Thistle", "test": "Pre-emergent herbicidal test, Canada Thistle; further: ranges in brackets are in %", "details": "Table I", "from_the_text": "A good grade of top soil is placed in aluminum pans and compacted to a depth of three-eights to one-half inch from the top of the pan. On the top of the soil is placed a number of seeds or vegetative propagules of various plant species. The soil required to level fill the pans after seeding or adding vegetative propagules is weighted into a pan. The soil and a known amount of the active ingredient applied in a solvent or as a wettable powder suspension are thoroughly mixed, and used to cover the prepared pans. After treatment, the pans are moved into a greenhouse bench where they are watered by subirrigation as needed to give adequate moisture for germination and growth.\nApproximately 2 weeks after seeding and treating, the plants were observed and the results recorded. The herbicidal rating was obtained by means of a fixed scale based on the percent injury of each plant species. The ratings are defined as follows: […]"}, "[2]": {"test": "Fish toxicity (carp), Japanese protocol", "details": "in vivo, carp (7 cm), read-out: TLM, Median Tolerance Limit (LC50)", "description": "(§1) In view of the importance of fish toxicity considerations, tests were conducted with the compound of Example 1 on carp (7 cm) according to Japanese protocol; test data are shown in Table VII. Since U.S. Pat. No. 3,955,959 mentioned above discloses carp toxicity data for butachlor (Compound A) and terbuchlor (Compound C), also obtained according to Japanese protocol, the toxicity data in said U.S. Pat. No. 3,955,959 for these compounds is also presented in Table VII for comparative purposes."}, "[3]": {"test_system": "Carp", "test": "Fish toxicity (carp), Japanese protocol", "description": "as §1"}, "[4]": {"test_system": "direct-seeded rice", "test": "Field tests in direct-seeded rice", "details": "less tolerant than transplant rice", "from_the_text": "The herbicides of this invention may be used singly, as mixtures with other herbicides and may be used in sequential use with other herbicides. For example, treatments of a transplant rice crop with the herbicides of this invention may be followed with treatments of other herbicides or mixtures such as S-4-chlorobenzyl diethylthiocarbamate (common name \"benthiocarb\") plus 2-chloro-4,6-di(ethylamino)-1,3,5-triazine (common name \"simazine\") or 3-isopropyl-(1H)-benzo-2,1,3-thiadiazine-4-one-2,2-dioxide (common name \"bentazone\") or 4-(4-chloro-2-methylphenoxy)butyric acid (common name \"MCPB\"). […] However, because of the high unit activity of compounds according to this invention against annual and perennial weeds associated with rice, it is within the purview of this invention to combine these herbicides with safeners or antidotes, to enhance the tolerance of both transplanted and direct-seeded rice thereto. Exemplary safeners contemplated as useful with the herbicides of this invention include the phenylglyoxylonitrile-2-oxime cyanomethyl ether described in U.S. Pat. No. 4,152,137, 2,4-disubstituted-5-thiazolecarboxylic acids and derivatives thereof as disclosed in the assignee's copending U.S. Ser. No. 906,183 and other known safeners for 2-haloacetanilides in rice."}, "[5]": {"test_system": "Sugarbeets", "test": "Sugarbeet greenhouse test, crop tolerance", "description": "(§2) In the discussion of data below, occasional reference is made to herbicide application rates symbolized as \"GR15 \" and \"GR85 \"; these rates are given in kilograms per hectare (kg/ha) which are convertible into pounds per acre (lbs/A) by dividing the kg/ha rate by 1.12.\n(§3) In further tests in the greenhouse, the compound of Example 2 was tested for its activity against annual weeds in sugarbeets at test rates within the range of 0.07 to 1.12 kg/ha (0.0625 to 1.0 lb/A). The GR15 and GR85 rates for sugarbeets and the various weeds are shown in Table VI; the selectivity factors for the herbicide against the weeds in sugarbeets are shown in parentheses below the weeds; \"NS\" means non-selective within the test limits. The following abbreviations are used in the table: barnyardgrass (BYG), wild oats (WO), downy brome (DB); redroot pigweed (RRP), blackgrass (BG), large crabgrass (LCG) and yellow foxtail (YFT)."}, "[6]": {"test_system": "Barnyardgrass", "test": "Sugarbeet greenhouse test, BYG", "details": "in sugarbeets", "from_the_text": "as §2\n(§4) A further guide to the effectiveness of a chemical as a selective herbicide is the \"selectivity factor\" (\"SF\") for a herbicide in given crops and weeds. The selectivity factor is a measure of the relative degree of crop safety and weed injury and is expressed in terms of the GR15 /GR85 ratio, i.e., the GR15 rate for the crop divided by the GR85 rate for the weed, both rates in kg/ha (lb/A.)\nas §3"}, "[7]": {"test_system": "wild oats", "test": "Sugarbeet greenhouse test, WO", "details": "in sugarbeets", "from_the_text": "as §2, §4, §3"}, "[8]": {"test_system": "Downy Brome", "test": "Sugarbeet greenhouse test, DB", "details": "in sugarbeets", "from_the_text": "as §2, §4, §3"}, "[9]": {"test_system": "redroot pigweed", "test": "Sugarbeet greenhouse test, RRP", "details": "in sugarbeets", "from_the_text": "as §2, §4, §3"}, "[10]": {"test_system": "blackgrass", "test": "Sugarbeet greenhouse test, BG", "details": "in sugarbeets", "from_the_text": "as §2, §4, §3"}, "[11]": {"test_system": "large crabgrass", "test": "Sugarbeet greenhouse test, LCG", "details": "in sugarbeets", "from_the_text": "as §2, §4, §3"}, "[12]": {"test_system": "yellow foxtail", "test": "Sugarbeet greenhouse test, YFT", "details": "in sugarbeets", "from_the_text": "as §2, §4, §3"}},
  "data": [
    {"smiles": "CCCCOc1cccc(CC)c1N(C)C(=O)CCl", "note": "[Example 1, N-methyl-2'-n-butoxy-6'-ethyl-2-chloroacetanilide]", "values": [
      {"measurement": "Rating, Canada Thistle", "setting": "[1]; 5.6 kg/h", "result": "3 (75-100)"},
      {"measurement": "Rating, Canada Thistle", "setting": "[1]; 11.2 kg/h", "result": "3 (75-100)"},
      {"measurement": "LC50 at 96 h", "setting": "[2]; 96 Hours", "result": 2.4, "unit": "µg/mL"},
      {"measurement": "LC50 at 48 h", "setting": "[2]; 48 hours", "result": 3.2, "unit": "µg/mL"},
      {"measurement": "expected fish kill relative to Compound A", "setting": "[3]; at expected use rates, vs Compound A", "result": "only one-sixth"},
      {"measurement": "toxicity to carp relative to Compound A", "setting": "[3]; vs Compound A", "result": "less than one-third as toxic"},
      {"measurement": "toxicity to carp relative to Compound C", "setting": "[3]; vs Compound C", "result": "almost one-half as toxic"},
      {"measurement": "efficacy in direct-seeded rice", "setting": "[4]", "result": "less-efficacious"}
    ]},
    {"smiles": "CCCCOc1cccc(CC)c1N(CC)C(=O)CCl", "note": "[Example 2, N-ethyl-2'-n-butoxy-6'-ethyl-2-chloroacetanilide]", "values": [
      {"measurement": "GR15 Rate, Sugarbeets", "setting": "[5]", "result": 0.56, "unit": "Kg/Ha"},
      {"measurement": "GR85 Rate, BYG", "setting": "[6]", "result": "< 0.07", "unit": "Kg/Ha"},
      {"measurement": "selectivity factor, BYG", "setting": "[6]", "result": "> 8.0"},
      {"measurement": "GR85 Rate, WO", "setting": "[7]", "result": 0.28, "unit": "Kg/Ha"},
      {"measurement": "selectivity factor, WO", "setting": "[7]", "result": 2.0},
      {"measurement": "GR85 Rate, DB", "setting": "[8]", "result": 0.14, "unit": "Kg/Ha"},
      {"measurement": "selectivity factor, DB", "setting": "[8]", "result": 4.0},
      {"measurement": "GR85 Rate, RRP", "setting": "[9]", "result": "> 1.12", "unit": "Kg/Ha"},
      {"measurement": "selectivity factor, RRP", "setting": "[9]", "result": "NS (non-selective within the test limits)"},
      {"measurement": "GR85 Rate, BG", "setting": "[10]", "result": 0.21, "unit": "Kg/Ha"},
      {"measurement": "selectivity factor, BG", "setting": "[10]", "result": 2.7},
      {"measurement": "GR85 Rate, LCG", "setting": "[11]", "result": 0.07, "unit": "Kg/Ha"},
      {"measurement": "selectivity factor, LCG", "setting": "[11]", "result": 8.0},
      {"measurement": "GR85 Rate, YFT", "setting": "[12]", "result": "< 0.07", "unit": "Kg/Ha"},
      {"measurement": "selectivity factor, YFT", "setting": "[12]", "result": "> 8.0"}
    ]}
  ]
}
